US10144742B2 (Millennium Pharmaceuticals, Inc., priority 2014, dated 2018)
Read-outs that look alike come from different tables or passages of the source.

Legend:
PC3 cells = experiment: PC3 growth inhibition (Cell-titer glo, 72 hours); format: cell-based; details: Homo sapiens, PC-3, PC3 cells, 72 hours, Cell-titer glo, read-out: Percent Inhibition (PC3 growth inhibition); for inhibition at 1 µM: compound concentration 1 μM; for inhibition at 1.667 µM: compound concentration 1.667 μM
Procedure, shortened: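 PC3 cells in RPMI1640 seeded overnight at 37 °C, 5% CO2, then exposed to compound diluted in AIM serum-free medium for 72 h. Viability by CellTiter-Glo luminescence vs DMSO controls; single-concentration % remaining viability (1 μM or 1.667 μM), or GI50/LD50 from curves.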

hNAMPT protein = hNAMPT protein (Homo sapiens (Human), UniProt P43490); experiment: NAMPT enzyme assay (TR-FRET/HTRF, BodiPY ligand, anti 6His-Tb); format: binding; details: for IC50: NAMPT IC50 range class, read-out: IC50; for inhibition at 1 µM: read-out: Percent Inhibition
Sequence of hNAMPT protein (P43490 whole entry): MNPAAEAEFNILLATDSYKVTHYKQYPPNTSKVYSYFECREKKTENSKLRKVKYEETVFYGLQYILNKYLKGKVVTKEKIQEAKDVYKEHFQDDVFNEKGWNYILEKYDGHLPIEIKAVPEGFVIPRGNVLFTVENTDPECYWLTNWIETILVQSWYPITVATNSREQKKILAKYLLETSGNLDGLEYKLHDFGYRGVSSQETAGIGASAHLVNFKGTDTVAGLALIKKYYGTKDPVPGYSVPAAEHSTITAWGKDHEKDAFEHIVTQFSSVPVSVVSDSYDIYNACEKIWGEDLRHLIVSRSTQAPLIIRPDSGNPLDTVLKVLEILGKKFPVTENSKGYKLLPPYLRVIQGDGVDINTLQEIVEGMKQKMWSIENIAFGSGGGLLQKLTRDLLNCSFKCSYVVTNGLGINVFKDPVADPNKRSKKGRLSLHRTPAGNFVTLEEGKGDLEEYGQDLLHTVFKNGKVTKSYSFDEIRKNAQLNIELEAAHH
Procedure, shortened: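 TR-FRET binding assay in which His-tagged human NAMPT with anti-6His-Tb is displaced by compound from a BodiPY ligand, incubated 1 h at rt in the dark. Excitation was at 320 nm, with the 520/486 nm emission ratio read. IC50 was fitted from inhibition relative to DMSO controls.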

Row | Structure (SMILES) | inhibition at 1 µM (PC3 cells) [%] | IC50 (hNAMPT protein) [µM] | inhibition at 1 µM (hNAMPT protein; compound concentration 1 μM) [%] | inhibition at 1 µM (hNAMPT protein) [%] | inhibition at 1.667 µM (PC3 cells) [%]
1 | O=C(NCCCn1ccnc1)c1ccc2nc(N3CCCCCC3)c(-c3ccccc3)nc2c1 [Compound I-262, 2-(azepan-1-yl)-N-[3-(1H-imidazol-1-yl)propyl]-3-phenylquinoxaline-6-carboxamide] | -7 | < 0.1 | 91 |  | 
2 | NC(=O)c1cccc(-c2nc3cc(C(=O)NCCCn4ccnc4)ccc3nc2-c2ccccc2)c1 [Compound I-263, 3-(3-carbamoylphenyl)-N-[3-(1H-imidazol-1-yl)propyl]-2-phenylquinoxaline-6-carboxamide] | 1 | 0.1 to 0.5 | 81 |  | 
3 | CC(=O)Nc1ccccc1-c1nc2ccc(C(=O)NCCCn3ccnc3)cc2nc1-c1ccccc1 [Compound I-264, 2-(2-acetamidophenyl)-N-[3-(1H-imidazol-1-yl)propyl]-3-phenylquinoxaline-6-carboxamide] | -8 | 1 to 2 | 41 |  | 
4 | O=C(NCCCn1ccnc1)c1ccc2nc(-c3ccccc3)c(N3CCCCCC3)nc2c1 [Compound I-265, 3-(azepan-1-yl)-N-[3-(1H-imidazol-1-yl)propyl]-2-phenylquinoxaline-6-carboxamide] | 11 | 2 to 10 | 17 |  | 
5 | O=C(c1ccc2nc(-c3ccc(F)cc3)c(-c3ccc(F)cc3)nc2c1)N1CCc2nocc2C1 [Compound I-266, [2,3-bis(4-fluorophenyl)quinoxalin-6-yl](6,7-dihydroisoxazolo[4,3-c]pyridin-5(4H)-yl)methanone] | 104 | 2 to 10 | 15 |  | 
6 | O=C(NCCCn1ccnc1)c1ccc2nc(N3CCC(N4CCOCC4)C3)c(-c3ccccc3)nc2c1 (stereo not drawn) [Compound I-267, N-[3-(1H-imidazol-1-yl)propyl]-2-[3-(morpholin-4-yl)pyrrolidin-1-yl]-3-phenylquinoxaline-6-carboxamide] | -7 | 0.1 to 0.5 | 81 |  | 
7 | O=C(NCCCn1ccnc1)c1ccc2nc(N3CCC4(CC3)Cc3ccccc3O4)c(-c3ccccc3)nc2c1 [Compound I-268, N-[3-(1H-imidazol-1-yl)propyl]-3-phenyl-2-(1′H,3H-spiro[1-benzofuran-2,4′-piperidin]-1′-yl)quinoxaline-6-carboxamide] | -6 | 1 to 2 | 63 |  | 
8 | O=C(NCCc1cccnc1)c1ccc2nc(-c3ccc(F)cc3)c(-c3ccc(F)cc3)nc2c1 [Compound I-269, 2,3-bis(4-fluorophenyl)-N-[2-(pyridin-3-yl)ethyl]quinoxaline-6-carboxamide] | 0 | 0.1 to 0.5 | 73 |  | 
9 | O=C(NCCn1ccnc1)c1ccc2nc(-c3ccc(F)cc3)c(-c3ccc(F)cc3)nc2c1 [Compound I-270, 2,3-bis(4-fluorophenyl)-N-[2-(1H-imidazol-1-yl)ethyl]quinoxaline-6-carboxamide] | 111 | 1 to 2 | 47 |  | 
10 | O=C(NCCCn1ccnc1)c1ccc2nc(N3CCC(C4CCNCC4)CC3)c(-c3ccccc3)nc2c1 [Compound I-271, 2-(4,4′-Bipiperidin-1-yl)-N-[3-(1H-imidazol-1-yl)propyl]-3-phenylquinoxaline-6-carboxamide] | -2 | < 0.1 |  | 102 | 
11 | O=C(NCCCn1ccnc1)c1ccc2nc(N3CCC(N4CCNC4=O)CC3)c(-c3ccccc3)nc2c1 [Compound I-272, N-[3-(1H-imidazol-1-yl)propyl]-2-[4-(2-oxoimidazolidin-1-yl)piperidin-1-yl]-3-phenylquinoxaline-6-carboxamide] | -6 | 0.1 to 0.5 | 72 |  | 
12 | O=C(NCCCc1ncc[nH]1)c1ccc2nc(Oc3ccccc3)c(-c3ccc(Cl)cc3)nc2c1 [Compound I-273, 3-(4-Chlorophenyl)-N-[3-(1H-imidazol-2-yl)propyl]-2-phenoxyquinoxaline-6-carboxamide] |  | < 0.1 | 88 |  | 2
13 | O=C(NCCCn1ccnc1)c1ccc2nc(NC3CCC3)c(-c3ccccc3)nc2c1 [Compound I-274, 2-(cyclobutylamino)-N-[3-(1H-imidazol-1-yl)propyl]-3-phenylquinoxaline-6-carboxamide] | -5 | 2 to 10 | 25 |  | 
14 | O=C(NCCCn1ccnc1)c1ccc2nc(N3CCC4(CC3)OCCO4)c(-c3ccccc3)nc2c1 [Compound I-275] | 0 | < 0.1 | 99 |  | 
15 | Cn1cnc(CCNC(=O)c2ccc3nc(-c4ccc(F)cc4)c(-c4ccc(F)cc4)nc3c2)c1 [Compound I-276, 2,3-bis(4-fluorophenyl)-N-[2-(1-methyl-1H-imidazol-4-yl)ethyl]quinoxaline-6-carboxamide] | 90 | 1 to 2 | 38 |  | 
16 | O=C(NCCCc1ncc[nH]1)c1ccc2nc(N3CCC4(CC3)COC4)c(-c3ccc(F)cc3)nc2c1 [Compound I-277, 3-(4-Fluorophenyl)-N-[3-(1H-imidazol-2-yl)propyl]-2-(2-oxa-7-azaspiro[3.5]non-7-yl)quinoxaline-6-carboxamide] |  | < 0.1 |  | 99 | 2
17 | CCN(CC)c1nc2cc(C(=O)NCCCn3ccnc3)ccc2nc1-c1ccccc1 [Compound I-278, 3-(diethylamino)-N-[3-(1H-imidazol-1-yl)propyl]-2-phenylquinoxaline-6-carboxamide] | 98 | 2 to 10 | 15 |  | 
18 | CN(CCn1ccnc1)C(=O)c1ccc2nc(-c3ccc(F)cc3)c(-c3ccc(F)cc3)nc2c1 [Compound I-279, 2,3-bis(4-fluorophenyl)-N-[2-(1H-imidazol-1-yl)ethyl]-N-methylquinoxaline-6-carboxamide] | 89 | 2 to 10 | 13 |  | 
19 | O=C(NCCCn1ccnc1)c1ccc2nc(N3CCC(n4c(=O)[nH]c5ccccc54)CC3)c(-c3ccccc3)nc2c1 [Compound I-280, N-[3-(1H-imidazol-1-yl)propyl]-2-[4-(2-oxo-2,3-dihydro-1H-benzimidazol-1-yl)piperidin-1-yl]-3-phenylquinoxaline-6-carboxamide] | -6 | 0.1 to 0.5 | 83 |  | 
20 | O=C(NCCCn1ccnc1)c1ccc2nc(-c3ccccc3)c(-c3ccccc3Cl)nc2c1 [Compound I-281, 3-(2-chlorophenyl)-N-[3-(1H-imidazol-1-yl)propyl]-2-phenylquinoxaline-6-carboxamide] | 6 | 1 to 2 | 37 |  | 
21 | O=C(NCc1cn2cccnc2n1)c1ccc2nc(N3CCC(O)CC3)c(-c3ccc(F)cc3)nc2c1 [Compound I-282, 3-(4-Fluorophenyl)-2-(4-hydroxypiperidin-1-yl)-N-(imidazo[1,2-a]pyrimidin-2-ylmethyl)quinoxaline-6-carboxamide] |  | < 0.1 | 91 |  | 96
22 | O=C(NCCCn1ccnc1)c1ccc2nc(-c3ccccc3)c(N3CCn4ccnc4C3)nc2c1 [Compound I-283, 3-(5,6-dihydroimidazo[1,2-a]pyrazin-7(8H)-yl)-N-[3-(1H-imidazol-1-yl)propyl]-2-phenylquinoxaline-6-carboxamide] | 100 | 2 to 10 | 12 |  | 
23 | CC(C)Oc1c2c(nn1C)CCN(C(=O)c1ccc3nc(-c4ccc(F)cc4)c(-c4ccc(F)cc4)nc3c1)C2 [Compound I-284, [2,3-bis(4-fluorophenyl)quinoxalin-6-yl](3-isopropoxy-2-methyl-2,4,6,7-tetrahydro-5H-pyrazolo[4,3-c]pyridin-5-yl)methanone] | 98 | 2 to 10 | 14 |  | 
24 | O=C(c1ccc2nc(-c3ccc(F)cc3)c(-c3ccc(F)cc3)nc2c1)N1CCc2[nH]nc(O)c2C1 [Compound I-285, [2,3-bis(4-fluorophenyl)quinoxalin-6-yl](3-hydroxy-1,4,6,7-tetrahydro-5H-pyrazolo[4,3-c]pyridin-5-yl)methanone] | 97 | 2 to 10 | 7 |  | 
25 | NCc1ccc(-c2nc3cc(C(=O)NCCc4cccnc4)ccc3nc2-c2ccccc2)cc1 [Compound I-286, 3-[4-(Aminomethyl)phenyl]-2-phenyl-N-[2-(pyridin-3-yl)ethyl]quinoxaline-6-carboxamide] | 4 | 2 to 10 |  | 13 | 
26 | O=C(NCCCc1ncc[nH]1)c1ccc2nc(N3CCS(=O)(=O)CC3)c(-c3ccc(F)cc3)nc2c1 [Compound I-287, 2-(1,1-dioxidothiomorpholin-4-yl)-3-(4-fluorophenyl)-N-[3-(1H-imidazol-2-yl)propyl]quinoxaline-6-carboxamide] |  | < 0.1 | 98 |  | 2
27 | O=C(NCCCc1ncc[nH]1)c1ccc2nc(N3CC4(CCOCC4)C3)c(-c3ccc(F)cc3)nc2c1 [Compound I-288, 3-(4-fluorophenyl)-N-[3-(1H-imidazol-2-yl)propyl]-2-(7-oxa-2-azaspiro[3.5]non-2-yl)quinoxaline-6-carboxamide] |  | < 0.1 | > 99 |  | 2
